From the SangsterLogP compilation

Row | SMILES | logP
1 | CC(=O)OCCl | 0.75
2 | CC(C)C(=O)O | 0.88
3 | CCCCCCCCCCO | 4.2
4 | CCCCOCCOCCOC(C)=O | 1.77
5 | CC[C@H](C)N | 0.6
6 | COS(=O)(=O)OC | 0.03
7 | C1=CC2C3C=CC(C3)C2C1 (stereo not drawn) | 2.9
8 | OCCOCCOCCO | -1.2
9 | OCCS | -0.06
10 | C=C(C)CCl | 1.98
11 | COCCOCCOCCO | -0.7
12 | CCOCCOC(C)=O | 0.24
13 | C=CC(=O)O | 0.31
14 | CCCCC(CC)COC(=O)CCCCC(=O)OCC(CC)CCCC (stereo not drawn) | 8.1
15 | OCC#CCO | -0.73
16 | C/C=C/C=O | 0.6
17 | C=CC(=O)OCC | 1.2
18 | Cc1ccc(S(=O)(=O)O)cc1 | 0.09
19 | CC(C)C=O | 0.4
20 | CC(C)CC=O | 1.3
21 | OCCOCCO | -1.98
22 | C=CCCl | 3
23 | O=C1OC(=O)c2ccccc21 | 0.7
24 | COCCOCCO | -1.1
25 | NCCNCCN | -1.3
26 | CCCCCOC(C)=O | 2
27 | O=P(OCCCl)(OCCCl)OCCCl | 0.5
28 | CCCCOC(=O)c1ccccc1C(=O)OCc1ccccc1 | 4.5
